{
  "source": "patent US20210113715A1",
  "about": "“TARGETED NANOPARTICLES FOR DIAGNOSING, DETECTING AND TREATING CANCER” (CEDARS-SINAI MEDICAL CENTER, priority 2018, published 2021)",
  "key": {"[1]": {"test_system": "PC3 prostate cancer cells", "test": "Transwell cell migration, PC3", "type": "cell-based", "conditions": "PC3, 24 h at 37° C.", "method": "After incubation, nonmigratory cells and media were washed from transwells, and those cells that migrated to the bottom of the filters were, fixed and stained and imaged using a fluorescence Microscope. […] Quantification of the average number of cells per image that have migrated (FIG. 8C)."}, "[2]": {"test_system": "LNCaP prostate cancer cells", "test": "Transwell cell migration, LNCaP", "type": "cell-based", "conditions": "24 h at 37° C."}, "[3]": {"test_system": "OATP transporter (U87 cells)", "test": "Inhibition of HMC-FH uptake by pre-incubation with inhibitors", "type": "cell-based", "conditions": "fluorescence microscopy and flow cytometry", "description": "Next, we tested the ability of HMC-FH to target and internalize into various GBM cancer cell lines."}, "[4]": {"test_system": "intracranial U87MG tumors", "conditions": "mouse, in vivo", "description": "Mouse brains were extracted from the mouse skull, and tumors visualized and resected from the healthy brain while recording using SIRIS."}, "[5]": {"test_system": "human intracranial U87MG tumors", "test": "HMC-FH(PTX) treatment of nude mice with intracranial U87MG tumors", "type": "in vivo", "conditions": "six treatments, 1 mg HMC, 3 mg PTX and 4 mgFe/kg; treatment period 40 days after tumor inoculation", "method": "Brain MRI images of treated mice (FIG. 46A). […] Corresponding mice body weight measurements (FIG. 46D).\nThe HMC-FH(PTX) was next used to treat nude mice with human intracranial U87MG tumors. […] It is not until after the treatment period that tumors start developing in the HMC-FH(PTX) treated mice (FIG. 46B)."}, "TMZ-resistant U87R cells": {"test_system": "TMZ-resistant U87R cells", "test": "Transwell cell migration, U87R", "type": "cell-based", "method": "After incubation, nonmigratory cells and media were washed from transwells, and those cells that migrated to the bottom of the filters were, fixed and stained and imaged using a fluorescence Microscope (Keyence BZ-X7 00). Representative images (5 fields) were taken of treatment (2 uM of each-BFA, HMC-FH and HMC-FH (BFA, DMSO) for quantification."}, "[6]": {"test_system": "intracranial U87 GBM tumors", "test": "Survival studies (Kaplan-Meier) of mice with intracranial U87 tumors", "type": "in vivo", "conditions": "treated 14 days after tumor implantation, 3 umol drug/kg i.v. twice a week for three weeks, n=5", "method": "A dose of 3 umol drug/kg, 22 mM Fe (FH) was administered i.v via tail vein injection twice a week for […].\n(§1) A dose of 3 umol drug/kg, 22 mM Fe (FH) was administered i.v. via tail vein injection twice a week for three weeks.\nas §1\nHMC-FH(PXL) and HMC-FH(BFA) increase the survival of mice with GBM tumors. In these experiments, we injected mice (n=5) with intracranial U87 GBM tumors with HMC-FH encapsulated with either paclitaxel (PTX) or docetaxel (DXT). As control, we injected either PBS or the corresponding drug along at equal concentrations. In initial studies, treatment started “late”, 14 days after tumor implantation. […] In additional studies, treatment was started earlier, 5 days after injection, to find out if an early treatment would improve survival. Impressive results were obtained by injecting HMC-FH(PXL), 5 days after tumor implantation.\nIn initial animal studies using BFA and HMC-FH(BFA), we injected mice (n=5) with intracranial U87 GBM tumors with either BFA (dissolved in DMSO) or HMC-FH(BFA) in saline. In these studies, treatment started “late”, 14 days after tumor implantation. […] The ability of BFA to cross the BBB has not been studied or reported, to our knowledge. However, due to its poor solubility, it is advantageous to encapsulate BFA in HMC-FH."}},
  "note": "“Also recorded” adds a separate entry of the source.",
  "data": [
    {"smiles": "CC(=O)O[C@@]12CO[C@@H]1C[C@H](O)[C@@]1(C)C(=O)[C@H](O)C3=C(C)[C@@H](OC(=O)[C@H](O)[C@@H](NC(=O)OC(C)(C)C)c4ccccc4)C[C@@](O)([C@@H](OC(=O)c4ccccc4)[C@H]21)C3(C)C", "note": "[DXT, docetaxel]", "values": [
      {"measurement": "cell migration", "setting": "[1]", "result": "decreased migration"},
      {"measurement": "cell migration", "setting": "[2]", "result": "decreased migration"}
    ]},
    {"smiles": "O=CC[C@@H](O)[C@H](O)[C@H](O)CO", "note": "[2-deoxyglucose]", "values": [
      {"measurement": "effect of pre-incubation on HMC-FH uptake", "setting": "[3]", "result": "do not block the internalization"}
    ]},
    {"smiles": "CC1(C)C(/C=C/C=C/C=C/C=C2\\N(CCCCS(=O)(=O)[O-])c3ccc4ccccc4c3C2(C)C)=[N+](CCCCS(=O)(=O)[O-])c2ccc3ccccc3c21.[Na+]", "note": "[ICG]", "values": [
      {"measurement": "fluorescent labeling / localization to tumor", "setting": "[4]", "result": "does not show tumor localization"}
    ]},
    {"smiles": "CC(=O)O[C@H]1C(=O)[C@@]2(C)[C@H]([C@H](OC(=O)c3ccccc3)[C@]3(O)C[C@H](OC(=O)[C@H](O)[C@@H](NC(=O)c4ccccc4)c4ccccc4)C(C)=C1C3(C)C)[C@]1(OC(C)=O)CO[C@@H]1C[C@@H]2O", "note": "[PTX, paclitaxel]", "values": [
      {"measurement": "tumor growth / tumor detection by MRI or histopathology", "setting": "[5]", "result": "developed visible tumor"}
    ]},
    {"smiles": "C[C@H]1CCC/C=C/[C@@H]2C[C@H](O)C[C@H]2[C@H](O)/C=C/C(=O)O1", "note": "[BFA, Brefeldin A]", "values": [
      {"measurement": "cell migration", "setting": "TMZ-resistant U87R cells; U87R, 2 uM, 24 h", "result": "decreased migration"},
      {"measurement": "cell migration", "setting": "TMZ-resistant U87R cells; printed as U87 cells", "result": "decrease cell migration"},
      {"measurement": "cell migration", "setting": "[1]", "result": "decreased migration"},
      {"measurement": "survival, BFA formulations", "setting": "[6]", "result": "significantly longer than in the control mice; also recorded: enhanced mice survival"}
    ]},
    {"smiles": "COC(=O)N[C@H](C(=O)N[C@@H](Cc1ccccc1)[C@@H](O)CN(Cc1ccc(-c2ccccn2)cc1)NC(=O)[C@@H](NC(=O)OC)C(C)(C)C)C(C)(C)C", "note": "[Atazanir]", "values": [
      {"measurement": "effect of pre-incubation on HMC-FH uptake", "setting": "[3]", "result": "uptake and cell associated fluorescence was reduced; also recorded: inhibits HMC-FH internalization"}
    ]}
  ]
}
